According to patent US20230011571A1, “SMALL MOLECULE FURIN INHIBITORS FOR TREATING INFECTIOUS DISEASES” (BP Asset V, Inc., priority 2019, published 2023):

Key:
Assay type in all cases: cell-based
Marburg virus (MARV) = experiment: organism not typed; settings: Vero, 72 h, read-out: Percent viral inhibition MARV
dengue virus (DENV) = experiment: microbe, parasite or virus in culture; settings: Dengue virus, Vero, 120 h, read-out: Percent viral inhibition DENY
[1] = system: Chikungunya virus (CHIKV); experiment: microbe, parasite or virus in culture; settings: Chikungunya virus, Vero, 48 h, read-out: Percent viral inhibition CHKV

SMILES	inhibition at 1 µM (Marburg virus (MARV)) [%]	inhibition at 1 µM (dengue virus (DENV)) [%]	inhibition at 1 µM [1] [%]
COCCN1CCN(c2ncc(Oc3cc(CN4CCC(CC(=O)O)CC4)cc(-c4cc(Cl)cc(Cl)c4)n3)cn2)CC1 [Example 247, 2-(1-((2-(3,5-dichlorophenyl)-6-((2-(4-(2-methoxyethyl)piperazin-1-yl)pyrimidin-5-yl)oxy)pyridin-4-yl)methyl)piperidin-4-yl)acetic acid]	49.7	50	31.1
CC(=O)NCC1CCN(Cc2cc(Oc3ccc(N4CC[N+](CCO)(CCO)CC4)nc3)nc(-c3cc(Cl)cc(Cl)c3)c2)CC1 [Example 179, 4-(5-((4-((4-(acetamidomethyl)piperidin-1-yl)methyl)-6-(3,5-dichlorophenyl)pyridin-2-yl)oxy)pyridin-2-yl)-1,1-bis(2-hydroxyethyl) piperazin-1-ium]	27.4	42.1	5.87
CC(=O)NCC1CCN(Cc2cc(Oc3ccc(N4CCN(CCP(=O)(O)O)CC4)nc3)nc(-c3cc(Cl)cc(Cl)c3)c2)CC1 [Example 30, (2-(4-(5-((4-((4-(acetamidomethyl)piperidin-1-yl)methyl)-6-(3,5-dichlorophenyl)pyridin-2-yl)oxy)pyridin-2-yl)piperazin-1-yl)ethyl)phosphonic acid]	15.5	44.3	10.1
O=S(=O)(O)CCC1CCN(Cc2cc(Oc3ccc(N4CCNCC4)nc3)nc(-c3cc(Cl)cc(Cl)c3)c2)CC1 [Example 7, 2-(1-((2-(3,5-dichlorophenyl)-6-((6-(piperazin-1-yl)pyridin-3-yl)oxy)pyridin-4-yl)methyl)piperidin-4-yl) ethanesulfonic acid]	51.9	12.9	9.36
CNC(=O)OCCN1CCN(c2ncc(Oc3cc(CN4CCC(CC(=O)O)CC4)cc(-c4cc(Cl)cc(Cl)c4)n3)cn2)CC1 [Example 241, 2-(1-((2-(3,5-dichlorophenyl)-6-((2-(4-(2-((methylcarbamoyl)oxy)ethyl)piperazin-1-yl)pyrimidin-5-yl)oxy)pyridin-4-yl)methyl)piperidin-4-yl)acetic acid]	73.1	43.4	32.4
CC(CC1CCN(Cc2cc(Oc3cnc(N4CCNCC4)nc3)nc(-c3cc(Cl)cc(Cl)c3)c2)CC1)C(=O)O (stereo not drawn) [Example 269, 3-(1-((2-(3,5-dichlorophenyl)-6-((2-(piperazin-1-yl)pyrimidin-5-yl)oxy)pyridin-4-yl)methyl)piperidin-4-yl)-2-methylpropanoic acid]	35	39.5	24.5
CN1CCN(c2ncc(Oc3cc(CN4CCC(CC(N)=O)CC4)cc(-c4cc(Cl)cc(Cl)c4)n3)cn2)CC1 [Example 142, 2-(1-((2-(3,5-dichlorophenyl)-6-((2-(4-methylpiperazin-1-yl)pyrimidin-5-yl)oxy)pyridin-4-yl)methyl)piperidin-4-yl)acetamide]	49.1	51.5	15.4
CC(CCN1CCN(c2ncc(Oc3cc(CN4CCCC4)cc(-c4cc(Cl)cc(Cl)c4)n3)cn2)CC1)C(=O)O (stereo not drawn) [Example 83, 4-(4-(5-((6-(3,5-dichlorophenyl)-4-(pyrrolidin-1-ylmethyl)pyridin-2-yl)oxy)pyrimidin-2-yl)piperazin-1-yl)-2-methylbutanoic acid]	53.8	28.9	33.4
CNC(=O)NCC1CCN(Cc2cc(Oc3cnc(N4CCN(CCOC)CC4)nc3)nc(-c3cc(Cl)cc(Cl)c3)c2)CC1 [Example 262, 1-((1-((2-(3,5-dichlorophenyl)-6-((2-(4-(2-methoxyethyl)piperazin-1-yl)pyrimidin-5-yl)oxy)pyridin-4-yl)methyl)piperidin-4-yl)methyl)-3-methylurea]	39.3	10.3	19
CC(=O)NCC1CCN(Cc2cc(Oc3cnc(N4CCN(CC(C)C(=O)O)CC4)nc3)nc(-c3cc(Cl)cc(Cl)c3)c2)CC1 (stereo not drawn) [Example 283, 3-(4-(5-((4-((4-(acetamidomethyl)piperidin-1-yl)methyl)-6-(3,5-dichlorophenyl)pyridin-2-yl)oxy)pyrimidin-2-yl)piperazin-1-yl)-2-methylpropanoic acid]	49.6	43.8	29.8
CC(=O)NCC1CCN(Cc2cc(Oc3ccc(N4C[C@H]5CC[C@@H](C4)N5CCC(=O)O)nc3)nc(-c3cc(Cl)cc(Cl)c3)c2)CC1 [Example 185, 3-((1R,5S)-3-(5-((4-((4-(acetamidomethyl)piperidin-1-yl)methyl)-6-(3,5-dichlorophenyl)pyridin-2-yl)oxy)pyridin-2-yl)-3,8-diazabicyclo[3.2.1]octan-8-yl) propanoic acid]	64.2	0	22.9
COC(=O)NCC1CCN(Cc2cc(Oc3cnc(N4CC5CCC(C4)N5CCC(=O)O)nc3)nc(-c3cc(Cl)cc(Cl)c3)c2)CC1 [Example 56, 3-(3-(5-((6-(3,5-dichlorophenyl)-4-((4-(((methoxycarbonyl)amino)methyl)piperidin-1-yl)methyl)pyridin-2-yl)oxy)pyrimidin-2-yl)-3,8-diazabicyclo[3.2.1]octan-8-yl) propanoic acid]	60.9	57.1	31.3
CCN1CCCN(c2ccc(Oc3cc(CN4CCC(CC(=O)O)CC4)cc(-c4cc(Cl)cc(Cl)c4)n3)nn2)CC1 [Example 355, 2-(1-((2-(3,5-dichlorophenyl)-6-((6-(4-ethyl-1,4-diazepan-1-yl)pyridazin-3-yl)oxy)pyridin-4-yl)methyl)piperidin-4-yl)acetic acid]	52.4	30.2	22
CNCc1cc(Oc2ccc(N3CCC(N)CC3)nc2)nc(-c2cc(C)cc(Cl)c2)c1 [Example 108, 1-(5-((6-(3-chloro-5-methylphenyl)-4-((methylamino)methyl)pyridin-2-yl)oxy)pyridin-2-yl)piperidin-4-amine]	65.7	0	16.4
CC(=O)NCC1CCN(Cc2cc(Oc3ccc(N4CCN(C)CC4)nn3)nc(-c3cc(Cl)cc(Cl)c3)c2)CC1 [Example 157, N-((1-((2-(3,5-dichlorophenyl)-6-((6-(4-methylpiperazin-1-yl)pyridazin-3-yl)oxy)pyridin-4-yl)methyl)piperidin-4-yl)methyl)acetamide]	77.5	53.4	25.3
COCCN1CCN(c2ccc(Oc3cc(CN4CCC(CC(=O)O)CC4)cc(-c4cc(Cl)cc(Cl)c4)n3)cn2)CC1 [Example 244, 2-(1-((2-(3,5-dichlorophenyl)-6-((6-(4-(2-methoxyethyl)piperazin-1-yl)pyridin-3-yl)oxy)pyridin-4-yl)methyl)piperidin-4-yl)acetic acid]	61.4	14	6.34
CC(=O)NCC1CCN(Cc2cc(Oc3ccc(N4CCN(CC(=O)O)CC4)nc3)nc(-c3cc(Cl)cc(Cl)c3)c2)CC1 [Example 10]	34.8	8.5	13.1
CC(CCN1CCN(c2ncc(Oc3cc(CN4CC[C@@H]5[C@H](CC4)[C@H]5NS(C)(=O)=O)cc(-c4cc(Cl)cc(Cl)c4)n3)cn2)CC1)C(=O)O (stereo partly drawn) [Example 81, 4-(4-(5-((6-(3,5-dichlorophenyl)-4-(((1R,7S,8r)-8-(methylsulfonamido)-4-azabicyclo[5.1.0]octan-4-yl)methyl)pyridin-2-yl)oxy)pyrimidin-2-yl)piperazin-1-yl)-2-methylbutanoic acid]	73.7	50.5	26.1
CC(=O)N[C@H]1[C@@H]2CCN(Cc3cc(Oc4cnc(N5CCN(CCC(C)C(=O)O)CC5)nc4)nc(-c4cc(Cl)cc(Cl)c4)c3)CC[C@@H]21 (stereo partly drawn) [Example 82, 4-(4-(5-((4-(((1R,7S,8r)-8-acetamido-4-azabicyclo[5.1.0]octan-4-yl)methyl)-6-(3,5-dichlorophenyl)pyridin-2-yl)oxy)pyrimidin-2-yl)piperazin-1-yl)-2-methylbutanoic acid]	53.2	19.8	18.4
CS(=O)(=O)N[C@H]1[C@@H]2CCN(Cc3cc(Oc4cnc(N5CCN(CCC(=O)O)CC5)nc4)nc(-c4cc(Cl)cc(Cl)c4)c3)CC[C@@H]21 [Example 80, 3-(4-(5-((6-(3,5-dichlorophenyl)-4-(((1R,7S,8r)-8-(methylsulfonamido)-4-azabicyclo[5.1.0]octan-4-yl)methyl)pyridin-2-yl)oxy)pyrimidin-2-yl)piperazin-1-yl)propanoic acid]	64.6	0	25
CC(=O)NCC1CCN(Cc2cc(Oc3ccc(N4CCN(CC(C)C(=O)O)CC4)nn3)nc(-c3cc(Cl)cc(Cl)c3)c2)CC1 (stereo not drawn) [Example 363, 3-(4-(6-((4-((4-(acetamidomethyl)piperidin-1-yl)methyl)-6-(3,5-dichlorophenyl)pyridin-2-yl)oxy)pyridazin-3-yl)piperazin-1-yl)-2-methylpropanoic acid]	2.8	0	0
CNC(=O)NCC1CCN(Cc2cc(Oc3ccc(N4CCN(CCOC)CC4)nc3)nc(-c3cc(Cl)cc(Cl)c3)c2)CC1 [Example 254, 1-((1-((2-(3,5-dichlorophenyl)-6-((6-(4-(2-methoxyethyl)piperazin-1-yl)pyridin-3-yl)oxy)pyridin-4-yl)methyl)piperidin-4-yl)methyl)-3-methylurea]	40.4	57	5.74
